Data published in patent US12180198B2, “Ribocil C antibiotics effective for Gram-negative pathogens” (THE BOARD OF TRUSTEES OF THE UNIVERSITY OF ILLINOIS, priority 2018, dated 2024).
In brackets after ≈: the same amount, converted by molar mass. Counter-ions that a name gives are not always drawn. Like-named read-outs stand apart in the source and are kept apart here.

Key:
Format in all cases: cell-based
[1] = tested on: K. pneumoniae AR-0347; assay: MIC, micro-dilution broth method; conditions: Klebsiella pneumoniae, AR0347
Method in brief: (§1)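 MIC by CLSI broth micro-dilution in cation-adjusted Mueller-Hinton broth, biological triplicate; values in […].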

[2] = tested on: E. cloacae ATCC 29893; assay: MIC, micro-dilution broth method; conditions: Enterobacter cloacae, ATCC29893
Method in brief: as §1

[3] = tested on: K. pneumoniae BAA-2473; assay: MIC, micro-dilution broth method; conditions: Klebsiella pneumoniae, BAA2473
Method in brief: as §1

[4] = tested on: E. coli BAA-2340; assay: MIC, micro-dilution broth method; conditions: Escherichia coli, BAA2340
Method in brief: as §1

[5] = tested on: K. pneumoniae BAA-2342; assay: MIC, micro-dilution broth method; conditions: Klebsiella pneumoniae, BAA2342
Method in brief: as §1

[6] = tested on: K. pneumoniae S20595; assay: MIC, micro-dilution broth method; conditions: Klebsiella pneumoniae
Method in brief: as §1

[7] = tested on: E. coli M66623; assay: MIC, micro-dilution broth method; conditions: Escherichia coli
Method in brief: as §1

[8] = tested on: A. baumannii M13100; assay: MIC, micro-dilution broth method; conditions: Acinetobacter baumannii
Method in brief: as §1

[9] = tested on: E. cloacae BAA-2341; assay: MIC, micro-dilution broth method; conditions: Enterobacter cloacae, BAA2341
Method in brief: as §1

[10] = tested on: E. coli F20987; assay: MIC, micro-dilution broth method; conditions: Escherichia coli
Method in brief: as §1

[11] = tested on: A. baumannii WO22; assay: MIC, micro-dilution broth method; conditions: Acinetobacter baumannii
Method in brief: as §1

[12] = tested on: E. coli AR-0349; assay: MIC, micro-dilution broth method; conditions: Escherichia coli, AR0349
Method in brief: as §1

[13] = tested on: E. coli BAA-2471; assay: MIC, micro-dilution broth method; conditions: Escherichia coli, BAA2471
Method in brief: as §1

[14] = tested on: A. baumannii KB343; assay: MIC, micro-dilution broth method; conditions: Acinetobacter baumannii
Method in brief: as §1

[15] = tested on: E. cloacae S28901.1; assay: MIC, micro-dilution broth method; conditions: Enterobacter cloacae
Method in brief: as §1

[16] = tested on: E. coli AR-0495; assay: MIC, micro-dilution broth method; conditions: Escherichia coli, AR0495
Method in brief: as §1

[17] = tested on: S. aureus ATCC 29213; assay: MIC, micro-dilution broth method; conditions: for increase in MIC in the presence of serum: S. aureus ATCC 29213, +50% human serum vs none
[18] = tested on: K. pneumoniae M14723; assay: MIC, micro-dilution broth method; conditions: Klebsiella pneumoniae
Method in brief: as §1

[19] = tested on: A. baumannii KB357; assay: MIC, micro-dilution broth method; conditions: Acinetobacter baumannii
Method in brief: as §1

[20] = tested on: E. cloacae BAA-2468; assay: MIC, micro-dilution broth method; conditions: Enterobacter cloacae, BAA2468
Method in brief: as §1

[21] = tested on: A. baumannii F19521; assay: MIC, micro-dilution broth method; conditions: Acinetobacter baumannii
Method in brief: as §1

[22] = tested on: K. pneumoniae BAA-2472; assay: MIC, micro-dilution broth method; conditions: Klebsiella pneumoniae, BAA2472
Method in brief: as §1

[23] = tested on: E. coli BAA-2469; assay: MIC, micro-dilution broth method; conditions: Escherichia coli, BAA2469
Method in brief: as §1

[24] = tested on: E. coli AR-0493; assay: MIC, micro-dilution broth method; conditions: Escherichia coli, AR0493
Method in brief: as §1

[25] = tested on: A. baumannii W41979; assay: MIC, micro-dilution broth method; conditions: Acinetobacter baumannii
Method in brief: as §1

[26] = tested on: P. aeruginosa PA01; assay: MIC, micro-dilution broth method; conditions: Pseudomonas aeruginosa
Method in brief: as §1

[27] = tested on: E. coli ΔtolC JW5503; assay: MIC, micro-dilution broth method; conditions: Escherichia coli
Method in brief: as §1

[28] = tested on: K. pneumoniae S47889; assay: MIC, micro-dilution broth method; conditions: Klebsiella pneumoniae
Method in brief: as §1

[29] = tested on: E. coli AR-0346; assay: MIC, micro-dilution broth method; conditions: Escherichia coli, AR0346
Method in brief: as §1

[30] = tested on: A. baumannii KB304; assay: MIC, micro-dilution broth method; conditions: Acinetobacter baumannii
Method in brief: as §1

[31] = tested on: K. pneumoniae BAA-1705; assay: MIC, micro-dilution broth method; conditions: Klebsiella pneumoniae, BAA1705
Method in brief: as §1

[32] = tested on: E. coli ΔrfaC JW3596; assay: MIC, micro-dilution broth method; conditions: Escherichia coli
Method in brief: as §1

[33] = tested on: E. cloacae, K. pneumoniae, and A. baumannii; assay: MIC, micro-dilution broth method (text summary); conditions: strains of E. cloacae
[34] = tested on: Gram-negative ESKAPE pathogens and E. coli; assay: MIC, micro-dilution broth method (text summary)

Cc1c(CN(C)C(=O)/C=C/c2cnc3c(c2)CC(N)C(=O)N3)oc2ccccc12 (stereo not drawn) [Debio-1452-NH3, (E)-3-(6-amino-7-oxo-5,6,7,8-tetrahydro-1,8-naphthyridin-3-yl)-N-methyl-N-((3-methylbenzofuran-2-yl)methyl)acrylamide hydrochloride]
MIC [1]: 16 µg/mL | MIC [2]: 8 µg/mL | MIC [3]: 16 µg/mL | MIC [4]: 4 µg/mL | MIC [5]: 16 µg/mL | MIC ([6]; S20595): 16 µg/mL | MIC ([7]; M66623): 8 µg/mL | MIC ([8]; M13100): 16 µg/mL | MIC [9]: 8 µg/mL | MIC ([10]; F20987): 4 µg/mL | MIC ([11]; WO22): 64 µg/mL | MIC [12]: 2 µg/mL | MIC [13]: 4 µg/mL | MIC ([14]; KB343): 64 µg/mL | MIC ([15]; S28901.1): 16 µg/mL | MIC [16]: 4 µg/mL | increase in MIC in the presence of serum [17]: 2 fold | MIC ([17]; Staphylococcus aureus, ATCC29213, S. aureus ATCC 29213): 0.03 µg/mL | MIC ([17]; Staphylococcus aureus, ATCC29213, S. aureus ATCC 29213 (+50% Human serum)): 0.062 µg/mL | MIC ([18]; M14723): 16 µg/mL | MIC ([19]; KB357): 64 µg/mL | MIC [20]: 8 µg/mL | MIC ([21]; F19521): 4 µg/mL | MIC [22]: 16 µg/mL | MIC [23]: 2 µg/mL | MIC [24]: 4 µg/mL | MIC ([25]; W41979): 4 µg/mL | MIC ([26]; PA01): > 64 µg/mL | MIC [27]: 0.062 µg/mL | MIC ([28]; S47889): 8 µg/mL | MIC [29]: 8 µg/mL | MIC ([30]; KB304): 64 µg/mL | MIC [31]: 8 µg/mL | MIC [32]: 0.25 µg/mL | MIC [33]: 4 to 8 µg/mL

Cc1c(CN(C)C(=O)/C=C/c2cnc3c(c2)CCC(=O)N3)oc2ccccc12 [Debio-1452, (E)-N-methyl-N-((3-methylbenzofuran-2-yl)methyl)-3-(7-oxo-5,6,7,8-tetrahydro-1,8-naphthyridin-3-yl)acrylamide, reference compound]
MIC ([1]; K. pneumoniae AR-0347, read-out: MIC): > 32 µg/mL | MIC ([2]; E. cloacae ATCC 29893, read-out: MIC): > 32 µg/mL | MIC ([3]; K. pneumoniae BAA-2473, read-out: MIC): > 32 µg/mL | MIC ([4]; E. coli BAA-2340, read-out: MIC): > 32 µg/mL | MIC ([5]; K. pneumoniae BAA-2342, read-out: MIC): > 32 µg/mL | MIC ([6]; K. pneumoniae S20595, read-out: MIC): > 32 µg/mL | MIC ([7]; E. coli M66623, read-out: MIC): > 32 µg/mL | MIC ([8]; A. baumannii M13100, read-out: MIC): > 32 µg/mL | MIC ([9]; E. cloacae BAA-2341, read-out: MIC): > 32 µg/mL | MIC ([10]; E. coli F20987, read-out: MIC): > 32 µg/mL | MIC ([11]; A. baumannii WO22, read-out: MIC): > 32 µg/mL | MIC ([12]; E. coli AR-0349, read-out: MIC): 4 µg/mL (≈ 10.7 µM) | MIC ([13]; E. coli BAA-2471, read-out: MIC): 8 µg/mL (≈ 21.3 µM) | MIC ([14]; A. baumannii KB343, read-out: MIC): > 32 µg/mL | MIC ([15]; E. cloacae S28901.1, read-out: MIC): > 32 µg/mL | MIC ([16]; E. coli AR-0495, read-out: MIC): 8 µg/mL (≈ 21.3 µM) | MIC ([17]; S. aureus ATCC 29213): 0.008 to 0.016 µg/mL | increase in MIC in the presence of serum [17]: 8 fold | MIC ([17]; Staphylococcus aureus, ATCC29213, S. aureus ATCC 29213 (+50% Human serum), read-out: MIC): 0.125 µg/mL (≈ 0.333 µM) | MIC ([17]; Staphylococcus aureus, ATCC29213, S. aureus ATCC 29213, read-out: MIC): 0.008 µg/mL (≈ 0.0213 µM) | MIC ([18]; K. pneumoniae M14723, read-out: MIC): > 32 µg/mL | MIC ([19]; A. baumannii KB357, read-out: MIC): > 32 µg/mL | MIC ([20]; E. cloacae BAA-2468, read-out: MIC): > 32 µg/mL | MIC ([21]; A. baumannii F19521, read-out: MIC): > 32 µg/mL | MIC ([22]; K. pneumoniae BAA-2472, read-out: MIC): > 32 µg/mL | MIC ([23]; E. coli BAA-2469, read-out: MIC): 4 µg/mL (≈ 10.7 µM) | MIC ([24]; E. coli AR-0493, read-out: MIC): > 32 µg/mL | MIC ([25]; A. baumannii W41979, read-out: MIC): > 32 µg/mL | MIC ([26]; P. aeruginosa PA01, read-out: MIC): > 32 µg/mL | MIC [27]: 0.031 µg/mL (≈ 0.0826 µM) | MIC ([28]; K. pneumoniae S47889, read-out: MIC): > 32 µg/mL | MIC ([29]; E. coli AR-0346, read-out: MIC): > 32 µg/mL | MIC ([30]; A. baumannii KB304, read-out: MIC): > 32 µg/mL | MIC ([31]; K. pneumoniae BAA-1705, read-out: MIC): > 32 µg/mL | MIC [32]: 0.5 µg/mL (≈ 1.33 µM) | MIC ([34]; Escherichia coli, Gram-negative ESKAPE pathogens and E. coli): > 32 µg/mL | activity (in words) ([34]; Gram-negatives with intact outer membranes): no activity
